Data as given in US20240217990A1 (Gilead Sciences, Inc., priority 2021, published 2024).

Assays:
TLR7 = target: T1, TLR7 (Homo sapiens, UniProt Q9NYK1); experiment: TLR7 human PBMC cell-based assay (antagonist, GS-986 stimulated cytokine release); conditions: human PBMCs; TLR7 agonist GS-986 400 nM, 6 hours; cytokines (IL-6 and IFNα) in supernatant; read-out: TLR-7 EC50
T1 construct: Human peripheral blood mononuclear cells (PBMCs) consist of lymphocytes, monocytes and dendritic cells that express TLR7, TLR8 and TLR9; endogenous in cells; host or cells: cryopreserved human PBMCs from healthy donors
T1 sequence (Q9NYK1 27-1049): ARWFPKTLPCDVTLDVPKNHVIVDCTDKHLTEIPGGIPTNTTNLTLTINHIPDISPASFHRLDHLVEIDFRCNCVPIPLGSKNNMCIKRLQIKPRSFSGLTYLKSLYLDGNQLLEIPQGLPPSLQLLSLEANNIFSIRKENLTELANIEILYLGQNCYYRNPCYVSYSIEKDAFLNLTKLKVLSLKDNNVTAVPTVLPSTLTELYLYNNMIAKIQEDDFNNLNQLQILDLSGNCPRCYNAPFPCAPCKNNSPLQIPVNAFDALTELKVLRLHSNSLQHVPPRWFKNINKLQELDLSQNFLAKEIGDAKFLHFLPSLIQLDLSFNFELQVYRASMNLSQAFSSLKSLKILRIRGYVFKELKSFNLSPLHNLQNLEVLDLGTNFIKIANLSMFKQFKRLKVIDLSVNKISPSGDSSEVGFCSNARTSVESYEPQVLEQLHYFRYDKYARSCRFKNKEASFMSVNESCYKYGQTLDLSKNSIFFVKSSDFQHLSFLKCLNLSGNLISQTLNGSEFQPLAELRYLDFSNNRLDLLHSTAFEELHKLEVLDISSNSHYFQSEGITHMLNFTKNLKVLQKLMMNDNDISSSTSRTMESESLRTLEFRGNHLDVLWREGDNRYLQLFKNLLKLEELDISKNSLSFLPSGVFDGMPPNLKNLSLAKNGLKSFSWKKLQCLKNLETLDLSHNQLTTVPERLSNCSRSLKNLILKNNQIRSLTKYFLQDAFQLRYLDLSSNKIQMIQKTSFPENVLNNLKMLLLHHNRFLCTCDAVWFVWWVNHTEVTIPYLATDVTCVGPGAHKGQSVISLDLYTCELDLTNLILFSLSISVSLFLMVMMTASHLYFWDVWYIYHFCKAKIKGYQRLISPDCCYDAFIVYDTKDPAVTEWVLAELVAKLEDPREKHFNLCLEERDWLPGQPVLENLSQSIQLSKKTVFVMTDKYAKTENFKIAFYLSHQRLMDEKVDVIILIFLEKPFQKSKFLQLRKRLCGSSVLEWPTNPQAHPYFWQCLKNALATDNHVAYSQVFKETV
Outline: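 Cryopreserved healthy-donor PBMCs (100,000/well, RPMI-1640 + 10% FBS) pre-incubated 1 h at 37 °C with antagonist (10-point dose response, quadruplicate), then stimulated 6 h with GS-986 at 400 nM final. Supernatant IL-6 and IFNα measured by electrochemiluminescence immunoassay; EC50 from sigmoidal fit.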

TLR8 = target: T2, TLR8 (Homo sapiens, UniProt Q9NR97); experiment: TLR8 human PBMC cell-based assay (antagonist, Compound A stimulated cytokine release); conditions: human PBMCs; TLR8 agonist Compound A 800 nM, 6 hours; cytokines (TNFa and IL 12p40) in supernatant; read-out: TLR-8 EC50
T2 construct: Human peripheral blood mononuclear cells (PBMCs) consist of lymphocytes, monocytes and dendritic cells that express TLR7, TLR8 and TLR9; endogenous in cells; host or cells: cryopreserved human PBMCs from healthy donors
T2 sequence (Q9NR97 27-1041): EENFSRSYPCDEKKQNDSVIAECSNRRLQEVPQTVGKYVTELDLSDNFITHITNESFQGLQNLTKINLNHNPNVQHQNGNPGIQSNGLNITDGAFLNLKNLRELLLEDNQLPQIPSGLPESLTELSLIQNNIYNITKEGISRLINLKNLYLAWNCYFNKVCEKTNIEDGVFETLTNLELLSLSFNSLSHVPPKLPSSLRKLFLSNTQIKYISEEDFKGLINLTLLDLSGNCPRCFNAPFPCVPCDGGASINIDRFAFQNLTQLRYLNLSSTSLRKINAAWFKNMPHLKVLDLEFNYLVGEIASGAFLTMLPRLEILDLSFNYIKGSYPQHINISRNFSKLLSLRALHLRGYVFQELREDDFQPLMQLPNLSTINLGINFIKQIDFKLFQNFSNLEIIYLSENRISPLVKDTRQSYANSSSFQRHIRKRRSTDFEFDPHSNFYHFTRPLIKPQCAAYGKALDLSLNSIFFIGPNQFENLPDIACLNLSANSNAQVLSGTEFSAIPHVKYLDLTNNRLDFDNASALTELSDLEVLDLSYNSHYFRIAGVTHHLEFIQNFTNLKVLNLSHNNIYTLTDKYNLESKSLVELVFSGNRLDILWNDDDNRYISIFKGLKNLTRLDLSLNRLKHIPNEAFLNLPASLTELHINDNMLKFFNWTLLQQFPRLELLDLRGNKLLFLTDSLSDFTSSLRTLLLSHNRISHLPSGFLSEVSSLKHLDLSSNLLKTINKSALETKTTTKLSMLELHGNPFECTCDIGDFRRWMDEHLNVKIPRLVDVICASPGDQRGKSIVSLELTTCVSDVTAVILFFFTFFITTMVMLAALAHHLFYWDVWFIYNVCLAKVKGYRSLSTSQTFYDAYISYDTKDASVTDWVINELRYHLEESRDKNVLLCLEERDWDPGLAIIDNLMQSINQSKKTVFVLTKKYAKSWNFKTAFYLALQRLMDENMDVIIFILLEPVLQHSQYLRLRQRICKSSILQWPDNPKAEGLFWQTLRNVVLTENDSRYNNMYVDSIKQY
Outline: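 Cryopreserved donor PBMCs (100,000/well, RPMI + 10% FBS) were preincubated 1 h with antagonist (10-point dose response, quadruplicate), then stimulated with Compound A (800 nM final) for 6 h at 37 °C. TNFa and IL-12p40 in supernatants were measured by electrochemiluminescence; sigmoidal fits gave EC50.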

Row | SMILES | EC50 (TLR7) [nM] | EC50 (TLR8) [nM]
1 | Cc1cc(-c2[nH]c3cc(C(=O)N4CC[C@@H](F)[C@@H](N)C4)sc3c2C(C)C)cc(C)n1 [Example 27] | 72 | 123
2 | Cc1cc(-c2[nH]c3cc(-c4ccc5c(c4)CCNC5)sc3c2C(C)C)cn2ncnc12 [Example 223] | 0.4 | 0.5
3 | Cc1cc(-c2[nH]c3cc(C(=O)N(C)C4CCN(CCC#N)CC4)sc3c2C(C)C)cn2ncnc12 [Example 183] | 17.5 | 32.4
4 | Cc1cc(-c2[nH]c3cc(CN4CCC(C)(O)CC4)sc3c2C(C)C)cn2ncnc12 [Example 270, 1-((6-Isopropyl-5-(8-methyl-[1,2,4]triazolo[1,5-a]pyridin-6-yl)-4H-thieno[3,2-b]pyrrol-2-yl)methyl)-4-methylpiperidin-4-ol] | 8.2 | 3
5 | Cc1c(-c2[nH]c3cc(C(=O)N(C)[C@@H]4CNC[C@H](C(F)(F)F)C4)sc3c2C(C)C)cn2ncnc2c1C [Example 273, 5-(7,8-dimethyl-[1,2,4]triazolo[1,5-a]pyridin-6-yl)-6-isopropyl-N-methyl-N-((3S,5R)-5-(trifluoromethyl)piperidin-3-yl)-4H-thieno[3,2-b]pyrrole-2-carboxamide] | 9.8 | 9.7
6 | CCc1c(-c2cc(C)c3ncnn3c2)[nH]c2cc(-c3nc(N4CCNCC4)no3)sc12 [Example 47] | 0.6 | 2.1
7 | Cc1c(C(=O)N2CCC[C@H](N)[C@@H]2C)sc2c(C(C)C)c(-c3cc(C)c4ncnn4c3)[nH]c12 [Example 242] | 15.4 | 219
8 | Cc1cc(-c2[nH]c3cc(-c4ccc(N5CCNCC5)cc4)sc3c2C(C)C)cn2ncnc12 [Example 214] | 0.6 | 2.9
9 | Cc1cc(-c2[nH]c3cc(C(=O)N(C)CC4CCNCC4)sc3c2C(C)C)cn2ncnc12 [Example 113] | 3.7 | 54.5
10 | Cc1cc(-c2[nH]c3cc(C4CC(C)(C)NC(C)(C)C4)sc3c2C(C)C)cn2ncnc12 [Example 294] | 49.5 | 19.5
11 | Cc1c(-c2[nH]c3cc(C(=O)N4CCNC(C)(C)C4)sc3c2C(C)C)cn2ncnc2c1C [Example 86] | 1 | 0.3
12 | Cc1cc(-c2[nH]c3cc(C4CCN(C(=O)[C@@H]5COCCN5)CC4)sc3c2C(C)C)cn2ncnc12 [Example 291] | 0.37 | 6.11
13 | Cc1cc(-c2[nH]c3cc(C(=O)N(C)[C@@H]4CNC[C@H](C(F)(F)F)C4)sc3c2C(C)C)cn2ncnc12 [Example 276] | 2.7 | 16.3
14 | Cc1cc(-c2[nH]c3cc(C(=O)N4C[C@@H](C)NC[C@@H]4C)sc3c2C(C)C)cn2ncnc12 [Example 123] | 1.3 | 0.5
15 | Cc1cc(-c2[nH]c3cc(C(=O)N4CCN(CCO)CC4)sc3c2C(C)C)cc(C)n1 [Example 45] | 355 | 31.7
16 | Cc1cc(-c2[nH]c3cc(C(=O)N4CCN[C@H](C(F)(F)F)C4)sc3c2C(C)C)cn2ncnc12 [Example 152] | 90.9 | 58.9

More lines, in order of falling EC50 (TLR7), values ahead:

Row | EC50 (TLR7) [nM] | EC50 (TLR8) [nM] | SMILES
17 | 337 | 66.7 | CCc1c(-c2cc(C)c3ncnn3c2)[nH]c2cc(-c3nc4ccc(N5CCNCC5)cc4[nH]3)sc12 [Example 245]
18 | 67.7 | 27.2 | Cc1cc(-c2[nH]c3cc(C(=O)N4CC[C@@H](N)C4)sc3c2C(C)C)cc(C)n1 [Example 8]
19 | 42.2 | 66.6 | Cc1cc(-c2[nH]c3cc(C(=O)N4CCC[C@@H](N)C4)sc3c2C(C)C)cc(C)n1 [Example 12]
20 | 36.6 | 16 | Cc1cc(-c2[nH]c3cc(-c4nnc(C5CCNCC5)o4)sc3c2C(C)C)cc(C)n1 [Example 52, 2-[5-(2,6-dimethyl-4-pyridyl)-6-isopropyl-4H-thieno[3,2-b]pyrrol-2-yl]-5-(4-piperidyl)-1,3,4-oxadiazole]
21 | 34.8 | 136 | Cc1cc(-c2[nH]c3cc(C(=O)N(C)C4CCC(N5CCC(F)(F)C5)CC4)sc3c2C(C)C)cn2ncnc12 (stereo not shown) [Example 254]
22 | 16.2 | 14 | Cc1cc(-c2[nH]c3cc(C(=O)N4CCNC[C@H]4c4ccccc4)sc3c2C(C)C)cn2ncnc12 [Example 116]
23 | 9.6 | 12.4 | Cc1cc(-c2[nH]c3cc(C4CCNC4)sc3c2C(C)C)cn2ncnc12 (stereo not shown) [Example 161]
24 | 9.6 | 11.2 | Cc1cc(-c2[nH]c3cc(C(=O)N(C)C4CCC(N5CC6(C5)CS(=O)(=O)C6)CC4)sc3c2C(C)C)cn2ncnc12 (stereo not shown) [Example 252]
25 | 6.8 | 49.4 | Cc1cc(-c2[nH]c3cc(-c4nc5ccc(N6CCNCC6)cc5[nH]4)sc3c2C(C)C)cn2ncnc12 [Example 237]
26 | 5.5 | 5.7 | CCc1c(-c2cc(C)c3ncnn3c2)[nH]c2cc(C(=O)N3CCNCC3)sc12 [Example 62, [6-ethyl-5-(8-methyl-[1,2,4]triazolo[1,5-a]pyridin-6-yl)-4H-thieno[3,2-b]pyrrol-2-yl]-piperazin-1-yl-methanone]
27 | 1.3 | 4.2 | Cc1cc(-c2[nH]c3cc(C4CCN(C(=O)CN5CCCC5)CC4)sc3c2C(C)C)cn2ncnc12 [Example 196, 1-(4-(6-isopropyl-5-(8-methyl-[1,2,4]triazolo[1,5-a]pyridin-6-yl)-4H-thieno[3,2-b]pyrrol-2-yl)piperidin-1-yl)-2-(pyrrolidin-1-yl)ethan-1-one]
28 | 0.76 | 6.45 | Cc1cc(-c2[nH]c3cc(C4CC5CCC4CN5CC(N)=O)sc3c2C(C)C)cn2ncnc12 (stereo not shown) [Example 288]
29 | 0.4 | 9.9 | CCN(C(=O)c1cc2[nH]c(-c3cc(C)c4ncnn4c3)c(C(C)C)c2s1)C1CCNCC1 [Example 135]
30 | 0.31 | 11.2 | Cc1cc(-c2[nH]c3cc(C4CCC(C(=O)N5CCNCC5)CC4)sc3c2C(C)C)cn2ncnc12 (stereo not shown) [Example 300]
31 | 0.23 | 14.2 | Cc1cc(-c2[nH]c3cc(C4CCC5(CC4)CN(C(=O)[C@H]4COCCN4)C5)sc3c2C(C)C)cn2ncnc12 [Example 284]
32 | 0.2 | 8.7 | Cc1cc(-c2[nH]c3cc(C4CCC5(CC4)CN(C(=O)CN(C)C)C5)sc3c2C(C)C)cn2ncnc12 [Example 185]
